From patent publication US9732088B2, “C2-carbocyclic iminothiazine dioxides as BACE inhibitors, compositions, and their use” (Merck Sharp & Dohme Corp., priority 2014, dated 2017)

Tests used:
[1] = molecular target: purified human autoBACE-2 (Homo sapiens (Human), UniProt Q9Y5Z0); assay: BACE-2 Assay (BACE-HTRF assay); format: biochemical; details: Assay 2; Ki calculated from IC50 by Cheng-Prusoff; read-out: BACE2 Ki
Description: The compounds of the invention were determined to be potent inhibitors of BACE-2 using the following assay. Inhibitor IC50s at purified human autoBACE-2 are determined in a time-resolved endpoint proteolysis assay that measures hydrolysis of the QSY7-[…]-Eu-amide FRET peptide substrate (BACE-HTRF assay). BACE-mediated hydrolysis of this peptide results in an increase in relative fluorescence (RFU) at 620 nm after excitation with 320 nm light Inhibitor compounds, prepared at 3× the desired final concentration in 1×BACE assay buffer (20 mM sodium acetate pH 5.0, 10% glycerol, 0.1% Brij-35) supplemented with 7.5% DMSO are pre-incubated with an equal volume of autoBACE-2 enzyme diluted in 1×BACE assay buffer (final enzyme concentration 1 nM) in black 384-well NUNC plates for 30 minutes at 30° C. […] DMSO is present at […] final concentration in the assay. Following laser excitation of sample wells at 320 nm, the fluorescence signal at 620 nm is collected for 400 ms following a 50 μs delay on a RUBYstar HTRF plate reader (BMG Labtechnologies). Raw RFU data is normalized to maximum (1.0 nM BACE/DMSO) and minimum (no enzyme/DMSO) RFU values. IC50 values are determined by nonlinear regression analysis (sigmoidal dose response, variable slope) of percent inhibition data with minimum and maximum values set to 0 and 100 percent respectively. Similar IC50s are obtained when using raw RFU data. The Ki values are calculated from the IC50 using the Cheng-Prusoff equation.

[2] = molecular target: soluble human BACE-1 catalytic domain (Homo sapiens (Human), UniProt P56817); assay: BACE-1 Ki Assay (BACE-1 HTRF FRET Assay); format: biochemical; details: Assay 1; Ki calculated from IC50 by Cheng-Prusoff
Description: Assay 1: BACE-1 Ki Assay (BACE-1 HTRF FRET Assay)
The compounds of the invention were determined to be potent inhibitors of BACE-1 using the following assay.
The following reagents were used in this assay. Na^+-Acetate pH 5.0; 1% Brij-35; Glycerol; Dimethyl Sulfoxide (DMSO); Recombinant human soluble BACE-1 catalytic domain (>95% pure); APP Swedish mutant peptide substrate (QSY7-APP^swe-Eu): QSY7-[…]-Europium-amide.
A homogeneous time-resolved FRET assay can be used to determine IC50 values for inhibitors of the soluble human BACE-1 catalytic domain. This assay monitors the increase of 620 nm fluorescence that resulted from BACE-1 cleavage of an APPswedish APP^swe mutant peptide FRET substrate (QSY7-[…]-Europium-amide). This substrate contains an N-terminal QSY7 moiety that serves as a quencher of the C-terminal Europium fluorophore (620 nm Em). In the absence of enzyme activity, 620 nm fluorescence is low in the assay and increased linearly over 3 hours in the presence of uninhibited BACE-1 enzyme. Inhibition of BACE-1 cleavage of the QSY7-APP^swe-Eu substrate by inhibitors is manifested as a suppression of 620 nm fluorescence.
Varying concentrations of inhibitors at 3× the final desired concentration in a volume of […] are preincubated with purified human BACE-1 catalytic domain (3 nM in 10 μl) for 30 minutes at 30° C. in reaction buffer containing 20 mM Na-Acetate pH 5.0, 10% glycerol, 0.1% Brij-35 and 7.5% DSMO. Reactions are initiated by addition of 10 μl of 600 nM QSY7-APP^swe-Eu substrate (200 nM final) to give a final reaction volume of 30 μl in a 384 well Nunc HTRF plate. The reactions are incubated at 30° C. for 1.5 hours. The 620 nm fluorescence is then read on a Rubystar HTRF plate reader (BMG Labtechnologies) using a […] delay followed by a 400 millisecond acquisition time window. Inhibitor IC50 values are derived from non-linear regression analysis of concentration response curves. Ki values are then calculated from IC50 values using the Cheng-Prusoff equation using a previously determined […] of 8 μM for the QSY7-APP^swe-Eu substrate at BACE-1. The example compounds of the invention were measured in this assay.

HepG2 cells = assay: In Vitro Phospholipidosis Assay; format: cell-based; details: 20 μM, 24 hours, normalized to DMSO
From the text: [formula] Assay 7: In Vitro Phospholipidosis Assay
Drug-induced phospholipidosis (PL) is characterized by intracellular accumulation of phospholipids with lamellular bodies, and may result from impaired phospholipid metabolism in the lysosome (Anderson et al., 2006, FEBS Letter, 580, 5533-5540), and many compounds known to cause drug-induced PL are also associated with adverse drug reactions. Using a method described in the literature (Bhandari et al., 2008, Assay and Drug Dev. Tech., 6(3), 407-419), an in vitro cellular assay can provide data that can determine the PL potential of test compounds. In this assay, compounds that lower values for mean inclusion count of a fluorescent phospholipid (described below) versus control are associated with reduced potential for PL.
HepG2 cells were dispensed into 96-well collagen I coated plates at an initial density of 2.0×10^5 cells in 200 μL complete culturing medium (MEM Media w/Earle's Balanced Salt Solution supplemented with 10 IU penicillin, 10 μg/mL streptomycin, and 10% heat inactivated fetal bovine serum). Cells were incubated overnight at 37° C. with 5% CO2, 89% humidity prior to treatment.
A solution of fluorescently labeled phospholipid N-(7-nitrobenz-2-oxa-1,3-diazol-4-yl)-1,2-dihexadecanoyl-sn-glycero-3-phosphoethanolamine (NBD-PE) was prepared at a concentration of 10 mM in absolute ethanol. Dissolution of the NBD-PE was facilitated by sonication in a room temperature water bath for 30 minutes. NBD-PE medium was prepared by diluting NBD-PE stock to a final concentration of 50 μM in complete culturing medium, filtering (pore size, 0.22 μm) prior to use.
Compound treatment stocks were prepared in dimethyl sulfoxide at 500× final concentrations. Working treatment solutions were prepared by diluting compound stocks into NBD-PE medium with DMSO serving as the vehicle control. Treatment concentration was 20 μM. Amiodarone ((2-{4-[(2-butyl-1-benzofuran-3-yl)carbonyl]-2,6-diiodophenoxy}ethyl)diethylamine) served as the assay positive control at the same concentration. All treatments were tested in triplicate for 24 hours.
Following treatment, cultures were rinsed once with Hank's Balanced Salt Solution (HBSS) containing no phenol red. Cultures were then incubated for 30 minutes at 37° C. with […] Hoechst 33342 nuclear stain and […] cell tracker orange cytoplasm stain. After incubation, cells were rinsed once with HBSS and then fixed in 2% formalin solution.
Cultures were imaged using the IN Cell Analyzer 2000 imaging system. One set of images were acquired with the 4× objective using the appropriate Hoechst filter settings to acquire a full-well cell count. Another set of images were acquired to evaluate treatment-related phospholipidosis with the 20× objective.
Images were analyzed using custom algorithms created in the IN Cell Workstation software using NBD-PE inclusion count in the cell cytoplasm as and endpoint associated with phospholipidosis. Data were expressed as fold over control, normalized to the DMSO vehicle control response.

[3] = molecular target: purified human Cathepsin-D (Homo sapiens (Human), UniProt P07339); assay: Cathepsin-D Assay (time-resolved FRET); format: biochemical; details: Assay 4; Ki calculated from IC50 by Cheng-Prusoff;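 further: Europium-labelled peptide substrate with QSY7 quencher, cleavage read as 620 nm fluorescence after 30 min preincubation then 30 min reaction at 30 °C, pH 5.0, inhibition lowers signal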
BACE-1 = BACE-1 (Homo sapiens (Human), UniProt P56817); assay: BACE-1 Cellular Assay (Aβ in HEK293-APPswe/lon cells); format: cell-based; details: 4 hours
Outline: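 HEK293 cells stably expressing human APP with Swedish and London FAD mutations, cultured at 37° C., 5% CO2. Aβ40 or Aβ42 in conditioned media measured by electrochemiluminescent ELISA (WO2 capture; G2-10 or G2-11 detection). IC50 from variable-slope sigmoidal fit of signal versus compound concentration.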

Chain of purified human Cathepsin-D (P07339 65-412): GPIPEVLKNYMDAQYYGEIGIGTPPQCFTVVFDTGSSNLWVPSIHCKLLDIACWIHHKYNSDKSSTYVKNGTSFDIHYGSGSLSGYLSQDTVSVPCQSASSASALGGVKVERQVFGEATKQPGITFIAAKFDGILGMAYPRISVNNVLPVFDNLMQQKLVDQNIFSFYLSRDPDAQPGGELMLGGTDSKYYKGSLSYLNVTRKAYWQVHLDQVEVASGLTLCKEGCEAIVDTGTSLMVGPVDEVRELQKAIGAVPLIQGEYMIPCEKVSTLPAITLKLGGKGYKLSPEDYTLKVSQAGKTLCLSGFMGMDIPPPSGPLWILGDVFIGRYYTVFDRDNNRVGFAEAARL
Chain of BACE-1 (P56817 46-501): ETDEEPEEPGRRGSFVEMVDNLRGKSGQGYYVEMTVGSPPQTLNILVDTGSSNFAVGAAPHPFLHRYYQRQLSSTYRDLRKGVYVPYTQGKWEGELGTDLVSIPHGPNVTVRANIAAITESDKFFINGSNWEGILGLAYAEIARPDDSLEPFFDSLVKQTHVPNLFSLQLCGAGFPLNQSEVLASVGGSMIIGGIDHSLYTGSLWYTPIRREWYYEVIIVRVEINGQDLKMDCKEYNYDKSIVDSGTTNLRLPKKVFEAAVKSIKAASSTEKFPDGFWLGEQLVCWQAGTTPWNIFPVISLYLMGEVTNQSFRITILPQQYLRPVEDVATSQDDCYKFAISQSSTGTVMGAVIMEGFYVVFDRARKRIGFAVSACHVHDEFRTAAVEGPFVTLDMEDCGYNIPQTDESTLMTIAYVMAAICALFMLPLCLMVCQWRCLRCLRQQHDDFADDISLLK
Chain of purified human autoBACE-2 (Q9Y5Z0 63-466): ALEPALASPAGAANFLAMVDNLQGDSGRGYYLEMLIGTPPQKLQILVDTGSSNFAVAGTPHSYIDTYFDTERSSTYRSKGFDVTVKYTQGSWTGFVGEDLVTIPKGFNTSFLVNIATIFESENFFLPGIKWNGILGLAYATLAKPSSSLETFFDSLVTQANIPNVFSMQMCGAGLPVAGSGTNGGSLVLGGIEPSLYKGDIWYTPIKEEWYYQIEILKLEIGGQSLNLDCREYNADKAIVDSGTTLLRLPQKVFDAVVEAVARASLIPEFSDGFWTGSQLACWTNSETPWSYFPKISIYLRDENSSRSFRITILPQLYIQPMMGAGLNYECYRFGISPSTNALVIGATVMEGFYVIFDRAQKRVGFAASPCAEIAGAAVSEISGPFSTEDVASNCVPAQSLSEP
Chain of soluble human BACE-1 catalytic domain (P56817 75-416): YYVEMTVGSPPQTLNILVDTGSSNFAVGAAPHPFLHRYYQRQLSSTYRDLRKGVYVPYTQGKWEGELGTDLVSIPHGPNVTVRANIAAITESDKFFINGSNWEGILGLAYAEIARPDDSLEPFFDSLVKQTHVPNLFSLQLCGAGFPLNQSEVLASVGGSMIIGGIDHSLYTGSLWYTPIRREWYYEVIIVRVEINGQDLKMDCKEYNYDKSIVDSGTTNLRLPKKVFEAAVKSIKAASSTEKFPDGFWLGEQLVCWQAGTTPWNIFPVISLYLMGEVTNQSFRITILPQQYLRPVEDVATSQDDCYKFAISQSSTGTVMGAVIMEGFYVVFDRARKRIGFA

## COc1cnc2c(Nc3ccc(F)c([C@]4(C)CS(=O)(=O)[C@@](CF)(C5CC5)C(N)=N4)c3)nccc2c1 [Example 7, N-{3-[(3R,6S)-6-cyclopropyl-6-(fluoromethyl)-5-imino-3-methyl-1,1-dioxidothiomorpholin-3-yl]-4-fluorophenyl}-3-methoxy-1,7-naphthyridin-8 amine]
[1]
  Ki: 3.6 nM
[2]
  Ki: 7.1 nM
HepG2 cells
  In Vitro Phospholipidosis Assay: Mean NBD-PE Inclusion Count (Fold over control): 1.9 Fold over control
[3]
  Ki: 1120 nM
BACE-1
  IC50: 132 nM
